Experimental data as given in patent publication US20220204473A1, “COMPOUND AS IRAK INHIBITOR” (SHANGHAI MEIYUE BIOTECH DEVELOPMENT CO., LTD., priority 2018, published 2022).

Key:
[1] = Stability in rat liver microsomes; format: in vitro ADME; conditions: pH 7.4, ∞ = no obvious metabolism found during assay, read-out: Stability test in liver microsomes t1/2, Rat
Procedure: (§1) 1. Preparation of buffer C:
(§2) Buffer A: 1.0 L of 0.1 M monopotassium phosphate buffer (containing 1.0 mM EDTA);
(§3) Buffer A: 1.0 L of 0.1 M dipotassium phosphate buffer (containing 1.0 mM EDTA);
(§4) Buffer C: Buffer A was added to 700 mL of buffer B until pH reached 7.4.
(§5) The test compound and the reference were separately dissolved in DMSO to give 10 mM stocks.
(§6) 500 μM solution: 10 μL of 10 mM stock solution was added to 190 μL of acetonitrile;
(§7) 1.5 μM dosing solution (in liver microsome solution):
(§8) 18.75 μL of 20 mg/mL liver microsomes were added to 479.75 μL of buffer C, followed by 1.5 μL of 500 μM solution. The mixture was gently shaken to mix well.
(§9) NADPH was weighed, to which an appropriate amount of buffer C was added to prepare a 6 mM NADPH solution.
(§10) 5. 30 μL of 1.5 μM dosing solution was added to wells of a 96-well plate set for different time points (0 min, 5 min, 15 min, 30 min, 45 min) in duplicate.
(§11) 6. Preparation of 0 min samples: 135 μL of acetonitrile (containing internal standard) was added to the 0 min wells, followed by 15 μL of 6 mM NADPH solution.
(§12) 7. The 96-well plate containing 1.5 μM dosing solution and NADPH solution were preheated for 5 min in a water bath at 37° C.
(§13) 8. 15 μL of pre-heated 6 mM NADPH solution was added to wells set for 5 min, 15 min, 30 min and 45 min to start the reaction.
(§14) 9. At time points of 5 min, 15 min, 30 min and 45 min, the reaction was terminated by adding 135 μL of acetonitrile (containing internal standard). The mixtures were vortexed for 10 min and centrifuged at 5594×g for 15 min (Thermo Multifuge×3R).
(§15) 10. 50 μL of the supernatant was transferred to wells of a 96-well plate containing 50 μL of water. The samples were mixed and finally subjected to LC-MS/MS analysis.

[2] = Stability in human liver microsomes; format: in vitro ADME; conditions: ∞ = no obvious metabolism found during assay
Procedure: as §1, §2, §3, §4, §5, §6, §7, §8, §9, §10, §11, §12, §13, §14, §15

[3] = Stability in mouse liver microsomes; format: in vitro ADME; conditions: ∞ = no obvious metabolism found during assay
Procedure: as §1, §2, §3, §4, §5, §6, §7, §8, §9, §10, §11, §12, §13, §14, §15

human IRAK4 = target: T1, human IRAK4 (Homo sapiens, UniProt Q9NWZ3); assay: IRAK4 MSA (Mobility-Shift Assay) at Km ATP; format: biochemical; conditions: GST-IRAK4 1 nM, ATP 37 μM (Km); read-out: IC50 for inhibiting human IRAK4 kinase
T1 construct: purchased Cama (so in the source)
T1 sequence (Q9NWZ3 1-460): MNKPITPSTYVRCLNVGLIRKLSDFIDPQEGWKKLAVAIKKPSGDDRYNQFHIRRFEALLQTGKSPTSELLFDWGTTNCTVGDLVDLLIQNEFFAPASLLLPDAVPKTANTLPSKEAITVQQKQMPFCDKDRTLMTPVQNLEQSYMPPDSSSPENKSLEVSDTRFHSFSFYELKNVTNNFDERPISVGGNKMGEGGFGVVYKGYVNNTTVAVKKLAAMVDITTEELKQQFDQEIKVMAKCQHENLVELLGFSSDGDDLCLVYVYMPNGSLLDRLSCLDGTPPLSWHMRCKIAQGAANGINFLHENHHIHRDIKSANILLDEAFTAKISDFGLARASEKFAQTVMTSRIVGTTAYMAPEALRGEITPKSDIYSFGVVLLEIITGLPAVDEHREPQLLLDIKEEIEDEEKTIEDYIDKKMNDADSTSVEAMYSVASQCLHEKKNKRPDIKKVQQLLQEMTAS
Procedure: A recombinant fusion protein of N-terminal GST (glutathione-S-transferase) and human IRAK4 was used as enzyme (GST-IRAK4, kinase IRAK4 (Cama)) at a final concentration of 1 nM; ATP (Sigma) was at a final concentration of 37 μM; the substrates used for the kinase reaction were a 5-FAM (5-carboxyfluorescein)-labeled polypeptide (5-FAM-[…]-COOH) and a substrate peptide FAM-P8 (GL Biochem) at final concentrations of […].
In this assay, 500 μM solutions of the compounds were prepared in 100% DMSO, and serially 4-fold diluted to the 10th concentration gradient with 100% DMSO, followed by a 10-fold dilution in the compound buffer (50 mM HEPES. pH 7.5, 0.00015% Brij-35) to give intermediate dilutions of the compounds at a final concentration of 10 μM-0.04 nM containing 10% DMSO respectively, 5 μL of the dilutions were transferred into a black 384-well plate respectively.
IRAK4 was diluted to 2.5 nM in the kinase buffer (50 mM HEPES, pH 7.5, 0.00015% Brij-35, 2 mM DTT). 10 μL of the IRAK4 dilution was transferred to the 384-well plate and co-incubated with the compound for 10-15 min.
The substrate and ATP were diluted to 12.5 μM and 92.5 μM with reaction buffer (50 mM HEPES, pH 7.5, 0.00015% Brij-35, 10 mM MgCl2), respectively. 10 μL of the dilutions were transferred to a 384-well plate and incubated at 28° C. for 1 h respectively. The reaction was terminated by adding 25 μL of 50 mM EDTA to the 384-well plate.
The inhibition rates of IRAK4 by the compounds were calculated by measuring the rate of phosphorylated substrate using a Caliper EZ Reader (PerkinElmer) and the IC50 values were calculated by XL-fit software.

[4] = test system: TNF-α release in LPS-induced Balb/c female mice; assay: Inhibition of TNF-α release in LPS-induced Balb/c female mice; format: in vivo, mouse; set-up: concentration or dose not given beside the values; conditions: oral gavage 5 h before LPS induction, serum 1.5 h after stimulation
Procedure: In the normal control groups, the animals received an intraperitoneal injection of normal saline (10 mL/kg) and in the model groups, the animals received LPS stimulation (Sigma CAT #L2630, i.p., 10 mL/kg, 0.2 mg/kg). During the assay, to the test compounds, DMSO, Solutol and 10 mM PBS were sequentially added to prepare a solution or suspension of required concentration for administration. For the vehicle, DMSO, Solutol and 10 mM PBS were mixed in a volume ratio of 5:15:80. In each of the groups, the animals were administered through oral gavage (10 mL/kg) 5 h before LPS (or saline) stimulation at predetermined doses, and euthanized with CO2 at 1.5 h after the stimulation for cardiac blood collection. The whole blood was not anticoagulated, incubated in wet ice for 1.5 h, and centrifuged at 2000×g at 4° C. for 10 min to separate the serum. The serum was frozen at −80° C. for TNF-α assay. Quantification of the TNF-α was done with TNF-α ELISA kit according to the manufacturer's instruction.

[5] = test system: IL-6 release in LPS-induced Balb/c female mice; assay: Inhibition of IL-6 release in LPS-induced Balb/c female mice; format: in vivo, mouse; set-up: concentration or dose not given beside the values; conditions: administered 5 h before LPS induction, serum
Procedure: Objective of the test: To determine the inhibitory effect of the compounds by measuring the plasma IL-6 concentration in a Balb/c mouse model with LPS-induced inflammation.
2.1 Prepared mouse serum samples (sample batch no. 20181218)
4.1 Reagent kit was equilibrated at room temperature (25-28° C.) for 20 min. After each detection, the remaining reagents were stored at 4° C.
4.3 Preparing reference standard: 1 vial of reference standard substance was added with labeled volume of reference standard diluent. The mixtures were incubated for 15 min at room temperature. Then the mixtures were gently mixed to completely dissolve the substance to prepare a reference standard stock at a final concentration of 1000 μg/mL.
4.4 Dilution of samples: The sample in each group was diluted by […], i.e., a 2-fold dilution with sample assay buffer followed by another two-fold dilution with standard diluent.
4.5 The diluted samples or standards of different concentrations were added into corresponding wells at 100 μL/well respectively, and a background correcting well (or a blank well) was set by adding only TMB buffer and terminating solution. The wells were sealed with a transparent film and incubated at room temperature for 120 min.
4.6 The plate was subjected to 5 washes, each with 300 μL of washing buffer for 15-30 sec. The plate was dried on thick absorbent paper after the last wash.
4.7 Biotinylated antibody was added at 100 μL/well (Note: the biotinylated antibody was prepared in advance and could be used directly without further dilution). The wells were sealed with a transparent film and incubated at room temperature for 60 min.
4.8 The plate was subjected to 5 washes, each with 300 μL of washing buffer for 15-30 sec. The plate was dried on thick absorbent paper after the last wash.
4.9 Horseradish peroxidase-labeled streptavidin was added at 100 μL/well. The wells were sealed with a white film and incubated away from light at room temperature for 20 min.
4.10 The plate was subjected to 5 washes, each with 300 μL of washing buffer for 15-30 sec. The plate was dried on thick absorbent paper after the last wash.
4.11 The chromogenic reagent TMB was added 100 μL/well. The wells were sealed with a white film and incubated away from light at room temperature for 20 min.
4.12 The terminating solution was added at 50 μL/well and A450 value was measured right after mixing.

Row | half-life at 1 μM [1] [h] | Stability test in liver microsomes t1/2, Human [2] | Stability test in liver microsomes t1/2, Mouse [3] | IC50 (human IRAK4) [nM] | Structure (SMILES) | Inhibition rate of TNF-α [4] [%] | Inhibition rate of IL-6 [5] [%]
1 | 11.4 | ∞ | ∞ | 4.4 | CC(C)(O)[C@H]1C[C@H](n2cc3cc(NC(=O)c4cccc(C(F)(F)F)n4)c(-n4cccn4)cc3n2)C1 [MY-004-144] |  | 
2 |  |  |  | 3.6 | COc1cc2nn([C@H]3C[C@H](C(C)(C)O)C3)cc2cc1NC(=O)c1cnn2cccnc12 [MY-004-075] | 90.15 | 96.88
